# Laboratory results taken from US8134015B2, “Compound inhibiting in vivo phosphorous transport and medicine containing the same” (Kyowa Hakko Kirin Co., Ltd., priority 2003, dated 2012).
# Legend:
# rat NaPi-2b = molecular target: T1, rat NaPi-2b (Rattus norvegicus, UniProt Q9JJ09); test: Sodium-dependent phosphate uptake of Xenopus oocytes which expressed NaPi-2b (32P); format: cell-based; conditions: Xenopus oocytes expressing rat NaPi-2b, 32P radioactive phosphorus; read-out: IC50 (phosphate uptake inhibitory activity)
# T1 construct: expressed in transfected cells; host or cells: Xenopus oocytes injected with cRNA
# T1 sequence (Q9JJ09 1-695): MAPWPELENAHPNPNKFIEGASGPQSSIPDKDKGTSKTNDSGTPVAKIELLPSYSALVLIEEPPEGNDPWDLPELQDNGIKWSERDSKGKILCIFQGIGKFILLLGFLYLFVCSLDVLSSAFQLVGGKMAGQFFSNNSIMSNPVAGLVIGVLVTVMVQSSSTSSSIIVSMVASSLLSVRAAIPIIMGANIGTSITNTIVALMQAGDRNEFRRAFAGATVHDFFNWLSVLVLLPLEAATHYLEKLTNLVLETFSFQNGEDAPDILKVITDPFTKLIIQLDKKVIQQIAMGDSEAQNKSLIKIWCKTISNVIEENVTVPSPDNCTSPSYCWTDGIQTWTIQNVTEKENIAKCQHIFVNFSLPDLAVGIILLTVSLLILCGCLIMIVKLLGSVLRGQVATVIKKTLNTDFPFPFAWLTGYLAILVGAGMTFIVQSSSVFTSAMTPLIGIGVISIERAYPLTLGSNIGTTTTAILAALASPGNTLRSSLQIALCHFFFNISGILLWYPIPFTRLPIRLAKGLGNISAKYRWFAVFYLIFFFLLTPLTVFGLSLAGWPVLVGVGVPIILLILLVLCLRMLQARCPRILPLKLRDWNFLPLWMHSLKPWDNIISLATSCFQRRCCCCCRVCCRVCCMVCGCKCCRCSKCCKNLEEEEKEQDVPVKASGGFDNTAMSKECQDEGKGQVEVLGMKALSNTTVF
# How it was run: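 Percent inhibition at 300 μM and 100 μM comes from the same inhibition curve of 32P uptake. Assay used oocytes expressing rat NaPi-2b after 2 days of culture.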
# human NaPi-2a = molecular target: T2, human NaPi-2a (Homo sapiens, UniProt Q06495); test: Sodium-dependent phosphate uptake of Xenopus oocytes which expressed NaPi-2a (32P); format: cell-based; conditions: phosphate uptake, Xenopus oocytes expressing human NaPi-2a; five concentration levels
# T2 construct: expressed in transfected cells
# T2 sequence (Q06495 1-639): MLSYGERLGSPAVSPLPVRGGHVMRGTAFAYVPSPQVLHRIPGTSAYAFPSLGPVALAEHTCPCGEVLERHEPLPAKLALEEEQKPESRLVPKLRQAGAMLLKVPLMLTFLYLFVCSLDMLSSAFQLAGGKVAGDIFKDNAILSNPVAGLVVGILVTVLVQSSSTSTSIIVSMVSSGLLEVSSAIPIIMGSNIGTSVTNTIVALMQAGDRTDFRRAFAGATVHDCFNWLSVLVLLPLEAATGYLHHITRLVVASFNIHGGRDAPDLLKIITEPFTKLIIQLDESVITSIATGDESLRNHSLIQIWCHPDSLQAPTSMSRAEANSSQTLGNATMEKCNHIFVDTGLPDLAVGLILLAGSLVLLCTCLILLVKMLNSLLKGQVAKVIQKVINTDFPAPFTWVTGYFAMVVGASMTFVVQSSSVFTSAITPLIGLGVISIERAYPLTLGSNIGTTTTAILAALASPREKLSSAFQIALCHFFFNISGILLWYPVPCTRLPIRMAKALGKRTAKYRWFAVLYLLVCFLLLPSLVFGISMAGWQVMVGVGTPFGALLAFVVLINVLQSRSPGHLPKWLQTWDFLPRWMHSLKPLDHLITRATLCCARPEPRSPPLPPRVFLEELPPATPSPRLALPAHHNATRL
# Text: Experiment of Sodium-Dependent Phosphate Uptake of Xenopus oocytes which Expressed NaPi-2a
# In the test, a group with the addition of choline chloride (Choline Cl) was used as a negative control for nonspecific uptake, and PFA (phosphonoformic acid) was used as a positive control for phosphate transport inhibition.
SMILES,IC50 (rat NaPi-2b) [µM],IC50 (human NaPi-2a) [µM]
"O=C(Nc1ccc(N2CCCCC2)cc1C(=O)N/N=C/c1cccc(F)c1)c1cccc(CSCCO)c1 [Compound 883, N-[2-(3-Fluoro-benzylidene-hydrazinocarbonyl)-4-piperidin-1-yl-phenyl]-3-(2-hydroxy-ethylsulfanylmethyl)-benzamide]",0.04,1.98
"O=C(Nc1ccc(N2CCCCC2)cc1C(=O)N/N=C/c1ccc(Cl)c(C(F)(F)F)c1)c1cccc(CSCCO)c1 [Compound 884, N-[2-(4-Chloro-3-trifluoromethyl-benzylidene-hydrazinocarbonyl)-4-piperidin-1-yl-phenyl]-3-(2-hydroxy-ethylsulfanylmethyl)-benzamide]",0.95,35.9
"Cc1ccc(/C=N/NC(=O)c2cc(N3CCCCC3)ccc2NC(=O)c2cccc(CSCCC(=O)O)c2)cc1C [Compound 886, 3-{3-[2-(3,4-Dimethyl-benzylidene-hydrazinocarbonyl)-4-piperidin-1-yl-phenylcarbamoyl]-benzylsulfanyl}-propionic acid]",0.81,2.93
"Cc1ccc(/C=N/NC(=O)c2cc(N3CCCCC3)ccc2NC(=O)c2cccc(CSCCC(=O)O)c2)cc1 [Compound 887, 3-{3-[2-(4-Methyl-benzylidene-hydrazinocarbonyl)-4-piperidin-1-yl-phenylcarbamoyl]-benzylsulfanyl}-propionic acid]",1.75,15.1
"O=C(O)CCSCc1cccc(C(=O)Nc2ccc(N3CCCCC3)cc2C(=O)N/N=C/c2ccc(Cl)c(C(F)(F)F)c2)c1 [Compound 889, 3-{3-[2-(4-Chloro-3-trifluoromethyl-benzylidene-hydrazinocarbonyl)-4-piperidin-1-yl-phenylcarbamoyl]-benzylsulfanyl}-propionic acid]",0.33,1.41
"COc1ccc(/C=N/NC(=O)c2cc(N3CCCCC3)ccc2NC(=O)c2cccc(CSCCC(=O)O)c2)cc1 [Compound 890, 3-{3-[2-(4-Methoxy-benzylidene-hydrazinocarbonyl)-4-piperidin-1-yl-phenylcarbamoyl]-benzylsulfanyl}-propionic acid]",3.91,1.33
"O=C(O)CSCc1cccc(C(=O)Nc2ccc(N3CCCCC3)cc2C(=O)N/N=C/c2ccc(Cl)c(C(F)(F)F)c2)c1 [Compound 891, {3-[2-(4-Chloro-3-trifluoromethyl-benzylidene-hydrazinocarbonyl)-4-piperidin-1-yl-phenylcarbamoyl]-benzylsulfanyl}-acetic acid]",1.47,13.9
"Cc1ccc(/C=N/NC(=O)c2cc(N3CCCCC3)ccc2NC(=O)c2cccc(CN3CCc4nc5ncccc5cc4C3)c2)cc1C [Compound 893, 3-(7,8-Dihydro-5H-1,6,9-triaza-anthracen-6-ylmethyl)-N-[2-(3,4-dimethyl-benzylidene-hydrazinocarbonyl)-4-piperidin-1-yl-phenyl]-benzamide]",< 0.3,5.11
"Cc1ccc(/C=N/NC(=O)c2cc(N3CCCCC3)ccc2NC(=O)c2cccc(CN3CCc4nc5ncccc5cc4C3)c2)cc1 [Compound 894, 3-(7,8-Dihydro-5H-1,6,9-triaza-anthracen-6-ylmethyl)-N-[2-(4-methyl-benzylidene-hydrazinocarbonyl)-4-piperidin-1-yl-phenyl]-benzamide]",0.5,3.61
"O=C(Nc1ccc(N2CCCCC2)cc1C(=O)N/N=C/c1ccc(F)cc1)c1cccc(CN2CCc3nc4ncccc4cc3C2)c1 [Compound 895, 3-(7,8-Dihydro-5H-1,6,9-triaza-anthracen-6-ylmethyl)-N-[2-(4-fluoro-benzylidene-hydrazinocarbonyl)-4-piperidin-1-yl-phenyl]-benzamide]",< 0.3,5.52
"O=C(Nc1ccc(N2CCCCC2)cc1C(=O)N/N=C/c1cccc(F)c1)c1cccc(CN2CCc3nc4ncccc4cc3C2)c1 [Compound 896, 3-(7,8-Dihydro-5H-1,6,9-triaza-anthracen-6-ylmethyl)-N-[2-(3-fluoro-benzylidene-hydrazinocarbonyl)-4-piperidin-1-yl-phenyl]-benzamide]",< 0.3,7.4
